Data: ChEMBL document CHEMBL4507291 (2021)

How the values were obtained:
[1] = target: Alpha-1B adrenergic receptor (Homo sapiens) (UniProt P35368); conditions: Compound concentration 10.0 uM
[2] = target: T1, Mitogen-activated protein kinase kinase kinase 5 (Homo sapiens) (UniProt Q99683); experiment: MAP3K5 (ASK1) Kinase screen; conditions: Compound concentration 1.0 uM
T1 sequence (whole entry): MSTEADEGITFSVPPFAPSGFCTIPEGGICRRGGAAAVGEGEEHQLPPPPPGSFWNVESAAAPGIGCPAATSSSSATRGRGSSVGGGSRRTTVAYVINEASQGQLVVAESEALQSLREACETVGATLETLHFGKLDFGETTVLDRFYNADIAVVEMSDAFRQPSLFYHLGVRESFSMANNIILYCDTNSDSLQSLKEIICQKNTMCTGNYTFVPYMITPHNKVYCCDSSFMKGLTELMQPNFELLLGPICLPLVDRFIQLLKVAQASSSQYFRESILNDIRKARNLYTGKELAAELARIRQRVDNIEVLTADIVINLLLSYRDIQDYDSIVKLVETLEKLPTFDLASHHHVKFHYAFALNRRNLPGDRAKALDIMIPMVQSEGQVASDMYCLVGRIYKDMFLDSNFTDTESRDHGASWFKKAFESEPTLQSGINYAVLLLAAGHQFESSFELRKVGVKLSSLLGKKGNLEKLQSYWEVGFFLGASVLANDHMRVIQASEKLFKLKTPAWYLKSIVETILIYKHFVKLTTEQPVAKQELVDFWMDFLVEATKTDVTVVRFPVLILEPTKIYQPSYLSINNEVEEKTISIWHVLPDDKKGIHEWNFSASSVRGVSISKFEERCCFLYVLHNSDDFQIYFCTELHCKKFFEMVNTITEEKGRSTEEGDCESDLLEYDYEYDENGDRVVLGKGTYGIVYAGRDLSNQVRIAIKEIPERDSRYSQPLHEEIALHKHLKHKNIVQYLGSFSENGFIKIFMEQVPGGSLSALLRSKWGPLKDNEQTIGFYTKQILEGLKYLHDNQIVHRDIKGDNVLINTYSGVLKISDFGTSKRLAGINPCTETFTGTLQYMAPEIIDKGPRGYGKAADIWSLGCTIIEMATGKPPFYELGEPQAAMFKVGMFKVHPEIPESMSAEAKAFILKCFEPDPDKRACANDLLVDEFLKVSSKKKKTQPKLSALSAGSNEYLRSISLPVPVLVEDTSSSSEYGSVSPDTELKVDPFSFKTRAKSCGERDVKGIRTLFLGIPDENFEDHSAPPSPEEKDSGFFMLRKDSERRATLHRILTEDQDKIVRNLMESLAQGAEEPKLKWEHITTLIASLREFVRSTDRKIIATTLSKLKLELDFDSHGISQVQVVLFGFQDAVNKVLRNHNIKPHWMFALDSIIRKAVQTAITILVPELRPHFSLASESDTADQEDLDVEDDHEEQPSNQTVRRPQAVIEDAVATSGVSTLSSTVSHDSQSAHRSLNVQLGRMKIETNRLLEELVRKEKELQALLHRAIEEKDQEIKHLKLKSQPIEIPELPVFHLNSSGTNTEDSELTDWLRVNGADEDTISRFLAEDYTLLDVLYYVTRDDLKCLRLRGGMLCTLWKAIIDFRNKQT

[3] = target: Rho-associated protein kinase 2 (Homo sapiens) (UniProt O75116); experiment: ROCK2 Kinase screen; conditions: Compound concentration 1.0 uM
[4] = target: Vascular endothelial growth factor receptor 2 (Homo sapiens) (UniProt P35968); experiment: KDR (VEGFR2) Kinase screen; conditions: Compound concentration 1.0 uM
[5] = target: T2, Tyrosine-protein kinase JAK3 (Homo sapiens) (UniProt P52333); experiment: JAK3 Kinase screen; conditions: Compound concentration 1.0 uM
T2 sequence (whole entry): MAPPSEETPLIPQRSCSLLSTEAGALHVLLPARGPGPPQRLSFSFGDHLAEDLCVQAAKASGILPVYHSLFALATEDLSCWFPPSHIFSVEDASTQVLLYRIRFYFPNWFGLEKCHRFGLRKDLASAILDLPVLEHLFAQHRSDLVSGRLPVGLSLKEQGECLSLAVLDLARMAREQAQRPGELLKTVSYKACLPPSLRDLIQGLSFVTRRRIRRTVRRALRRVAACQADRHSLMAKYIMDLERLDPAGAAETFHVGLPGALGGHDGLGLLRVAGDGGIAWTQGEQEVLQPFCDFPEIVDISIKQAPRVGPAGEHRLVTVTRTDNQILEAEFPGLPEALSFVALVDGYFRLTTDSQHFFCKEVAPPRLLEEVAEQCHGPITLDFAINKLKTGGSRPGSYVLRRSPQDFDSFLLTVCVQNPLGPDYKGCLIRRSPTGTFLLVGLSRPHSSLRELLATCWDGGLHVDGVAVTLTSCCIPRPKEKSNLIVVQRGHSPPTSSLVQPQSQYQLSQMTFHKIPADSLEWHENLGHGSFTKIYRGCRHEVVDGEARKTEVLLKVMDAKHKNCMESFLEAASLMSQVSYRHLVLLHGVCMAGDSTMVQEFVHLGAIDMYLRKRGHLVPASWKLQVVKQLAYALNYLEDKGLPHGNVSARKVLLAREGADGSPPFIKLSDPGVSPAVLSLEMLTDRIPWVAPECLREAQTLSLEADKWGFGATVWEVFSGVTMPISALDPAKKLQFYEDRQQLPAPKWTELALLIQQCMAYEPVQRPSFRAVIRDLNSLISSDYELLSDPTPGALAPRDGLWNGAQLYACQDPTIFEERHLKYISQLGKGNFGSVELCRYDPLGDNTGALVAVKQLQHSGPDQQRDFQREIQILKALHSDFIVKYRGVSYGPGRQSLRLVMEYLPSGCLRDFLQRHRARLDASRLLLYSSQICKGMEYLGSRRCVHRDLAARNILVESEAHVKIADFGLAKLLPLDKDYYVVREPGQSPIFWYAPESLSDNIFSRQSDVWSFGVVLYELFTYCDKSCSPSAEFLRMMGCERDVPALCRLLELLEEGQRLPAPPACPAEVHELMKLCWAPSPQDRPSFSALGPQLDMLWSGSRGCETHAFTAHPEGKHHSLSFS

[6] = target: Casein kinase I isoform alpha (Homo sapiens) (UniProt P48729); experiment: CSNK1A1 (CK1 alpha 1) Kinase screen; conditions: Compound concentration 1.0 uM
[7] = target: Serine/threonine-protein kinase PAK 3 (Homo sapiens) (UniProt O75914); experiment: PAK3 Kinase screen; conditions: Compound concentration 1.0 uM
[8] = target: Serine/threonine-protein kinase WNK2 (Homo sapiens) (UniProt Q9Y3S1); experiment: WNK2 Kinase screen; conditions: Compound concentration 1.0 uM
[9] = target: Protein kinase C gamma type (Homo sapiens) (UniProt P05129); experiment: PRKCG (PKC gamma) Kinase screen; conditions: Compound concentration 1.0 uM

Measured: inhibition

Alpha-1B adrenergic receptor (Homo sapiens), sequence (P35368 whole entry): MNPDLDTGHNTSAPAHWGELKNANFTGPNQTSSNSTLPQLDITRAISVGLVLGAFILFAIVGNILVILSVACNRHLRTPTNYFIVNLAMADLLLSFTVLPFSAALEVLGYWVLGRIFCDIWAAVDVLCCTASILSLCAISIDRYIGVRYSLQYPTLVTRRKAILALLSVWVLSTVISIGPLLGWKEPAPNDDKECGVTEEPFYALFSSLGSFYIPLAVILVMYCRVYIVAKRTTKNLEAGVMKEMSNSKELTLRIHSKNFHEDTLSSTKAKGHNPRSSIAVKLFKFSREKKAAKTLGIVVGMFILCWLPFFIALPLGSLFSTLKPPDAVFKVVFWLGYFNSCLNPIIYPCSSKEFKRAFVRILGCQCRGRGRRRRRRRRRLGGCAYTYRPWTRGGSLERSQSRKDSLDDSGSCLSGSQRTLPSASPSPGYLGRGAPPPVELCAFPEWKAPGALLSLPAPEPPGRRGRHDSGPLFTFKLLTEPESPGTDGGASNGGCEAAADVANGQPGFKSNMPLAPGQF
Casein kinase I isoform alpha (Homo sapiens), sequence (P48729 2-337 limits assumed): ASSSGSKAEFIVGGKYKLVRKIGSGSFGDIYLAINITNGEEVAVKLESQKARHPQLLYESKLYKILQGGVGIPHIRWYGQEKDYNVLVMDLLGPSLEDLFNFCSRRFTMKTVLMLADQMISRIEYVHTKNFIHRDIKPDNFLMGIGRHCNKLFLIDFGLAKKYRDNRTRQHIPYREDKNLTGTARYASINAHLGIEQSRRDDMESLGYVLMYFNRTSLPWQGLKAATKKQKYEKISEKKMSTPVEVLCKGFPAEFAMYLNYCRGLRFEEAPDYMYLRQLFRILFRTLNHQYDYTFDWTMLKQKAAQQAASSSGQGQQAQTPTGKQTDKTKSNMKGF
Serine/threonine-protein kinase PAK 3 (Homo sapiens), sequence (O75914 whole entry, looked up): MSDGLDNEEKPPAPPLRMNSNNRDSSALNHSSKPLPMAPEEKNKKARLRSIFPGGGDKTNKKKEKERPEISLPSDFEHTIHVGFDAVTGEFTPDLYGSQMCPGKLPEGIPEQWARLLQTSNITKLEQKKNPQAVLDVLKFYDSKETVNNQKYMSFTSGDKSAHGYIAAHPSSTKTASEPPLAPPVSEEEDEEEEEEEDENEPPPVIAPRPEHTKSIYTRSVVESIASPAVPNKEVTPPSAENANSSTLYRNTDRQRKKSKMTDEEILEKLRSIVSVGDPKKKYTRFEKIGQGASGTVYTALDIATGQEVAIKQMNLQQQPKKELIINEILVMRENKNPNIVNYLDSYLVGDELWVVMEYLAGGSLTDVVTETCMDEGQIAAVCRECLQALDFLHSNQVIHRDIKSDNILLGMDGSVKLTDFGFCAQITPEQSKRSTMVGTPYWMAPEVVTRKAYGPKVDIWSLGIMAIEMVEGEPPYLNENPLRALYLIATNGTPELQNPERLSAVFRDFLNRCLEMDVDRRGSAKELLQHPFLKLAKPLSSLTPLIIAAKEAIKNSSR
Rho-associated protein kinase 2 (Homo sapiens), sequence (O75116 whole entry, looked up): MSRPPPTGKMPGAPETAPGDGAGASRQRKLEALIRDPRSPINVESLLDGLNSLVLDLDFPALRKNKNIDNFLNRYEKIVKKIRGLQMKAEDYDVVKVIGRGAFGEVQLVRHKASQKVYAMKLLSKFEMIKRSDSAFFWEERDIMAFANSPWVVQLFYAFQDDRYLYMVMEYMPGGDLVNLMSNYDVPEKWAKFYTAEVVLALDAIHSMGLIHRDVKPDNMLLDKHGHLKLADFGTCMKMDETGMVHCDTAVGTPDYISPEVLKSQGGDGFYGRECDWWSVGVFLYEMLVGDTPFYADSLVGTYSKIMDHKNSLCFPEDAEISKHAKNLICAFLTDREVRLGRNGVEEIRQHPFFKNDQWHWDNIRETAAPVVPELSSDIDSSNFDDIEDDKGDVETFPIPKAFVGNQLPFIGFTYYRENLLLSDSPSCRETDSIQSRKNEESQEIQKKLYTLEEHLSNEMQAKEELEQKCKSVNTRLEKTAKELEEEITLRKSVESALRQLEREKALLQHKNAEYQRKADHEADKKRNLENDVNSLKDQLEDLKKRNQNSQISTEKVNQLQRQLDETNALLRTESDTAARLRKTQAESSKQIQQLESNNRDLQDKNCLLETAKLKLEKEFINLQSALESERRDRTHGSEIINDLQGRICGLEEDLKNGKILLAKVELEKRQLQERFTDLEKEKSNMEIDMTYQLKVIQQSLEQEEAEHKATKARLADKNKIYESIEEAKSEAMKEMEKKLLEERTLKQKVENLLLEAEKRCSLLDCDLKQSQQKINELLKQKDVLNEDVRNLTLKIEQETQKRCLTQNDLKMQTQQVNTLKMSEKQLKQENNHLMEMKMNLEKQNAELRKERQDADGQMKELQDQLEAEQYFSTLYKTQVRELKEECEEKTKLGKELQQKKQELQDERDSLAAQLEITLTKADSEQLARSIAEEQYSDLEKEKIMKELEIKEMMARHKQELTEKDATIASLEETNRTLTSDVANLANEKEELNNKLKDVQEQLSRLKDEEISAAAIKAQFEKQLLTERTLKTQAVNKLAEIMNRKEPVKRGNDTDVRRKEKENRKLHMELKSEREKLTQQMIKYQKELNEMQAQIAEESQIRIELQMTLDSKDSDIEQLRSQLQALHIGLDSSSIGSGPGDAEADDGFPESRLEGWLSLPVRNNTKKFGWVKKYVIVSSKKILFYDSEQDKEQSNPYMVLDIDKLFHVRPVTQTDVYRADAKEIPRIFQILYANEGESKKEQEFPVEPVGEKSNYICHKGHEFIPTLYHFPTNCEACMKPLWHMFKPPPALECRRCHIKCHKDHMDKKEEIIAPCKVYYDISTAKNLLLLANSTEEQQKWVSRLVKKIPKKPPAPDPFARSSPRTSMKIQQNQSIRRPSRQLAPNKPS
Vascular endothelial growth factor receptor 2 (Homo sapiens), sequence (P35968 whole entry): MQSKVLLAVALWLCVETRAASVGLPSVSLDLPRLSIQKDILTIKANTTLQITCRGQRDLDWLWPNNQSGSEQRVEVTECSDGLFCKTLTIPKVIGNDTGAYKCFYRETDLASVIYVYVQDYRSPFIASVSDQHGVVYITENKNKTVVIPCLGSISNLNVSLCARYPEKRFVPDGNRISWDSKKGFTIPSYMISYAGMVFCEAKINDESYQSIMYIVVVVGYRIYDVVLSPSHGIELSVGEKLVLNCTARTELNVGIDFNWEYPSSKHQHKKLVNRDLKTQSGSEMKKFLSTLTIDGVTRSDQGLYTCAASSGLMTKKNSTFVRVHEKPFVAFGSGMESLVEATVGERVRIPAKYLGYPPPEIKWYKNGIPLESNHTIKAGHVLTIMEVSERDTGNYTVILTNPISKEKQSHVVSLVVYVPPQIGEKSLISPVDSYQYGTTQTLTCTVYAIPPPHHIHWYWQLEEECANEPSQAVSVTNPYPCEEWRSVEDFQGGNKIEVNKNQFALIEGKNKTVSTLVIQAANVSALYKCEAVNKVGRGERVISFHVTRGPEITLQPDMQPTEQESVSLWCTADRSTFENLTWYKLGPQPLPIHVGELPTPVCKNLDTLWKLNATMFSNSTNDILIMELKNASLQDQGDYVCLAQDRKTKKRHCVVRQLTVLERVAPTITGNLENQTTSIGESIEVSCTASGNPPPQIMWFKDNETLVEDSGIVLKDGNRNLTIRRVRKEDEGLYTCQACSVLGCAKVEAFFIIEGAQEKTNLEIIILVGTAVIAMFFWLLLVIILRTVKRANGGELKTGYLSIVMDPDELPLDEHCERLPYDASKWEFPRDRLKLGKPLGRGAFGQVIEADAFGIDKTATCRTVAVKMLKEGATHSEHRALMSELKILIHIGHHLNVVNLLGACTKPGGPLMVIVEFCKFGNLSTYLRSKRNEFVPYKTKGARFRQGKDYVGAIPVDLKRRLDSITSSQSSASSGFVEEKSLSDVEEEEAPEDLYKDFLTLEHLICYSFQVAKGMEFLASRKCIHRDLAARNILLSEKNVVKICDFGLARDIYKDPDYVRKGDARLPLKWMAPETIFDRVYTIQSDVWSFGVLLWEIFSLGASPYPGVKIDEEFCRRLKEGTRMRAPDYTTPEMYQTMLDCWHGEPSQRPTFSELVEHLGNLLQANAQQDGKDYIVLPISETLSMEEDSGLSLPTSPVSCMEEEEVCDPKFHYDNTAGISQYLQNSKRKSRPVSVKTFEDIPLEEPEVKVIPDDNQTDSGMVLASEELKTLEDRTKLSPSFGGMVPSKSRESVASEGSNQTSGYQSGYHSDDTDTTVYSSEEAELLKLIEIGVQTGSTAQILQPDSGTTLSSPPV

C[C@@H]1CN(c2cc(-c3nn(C)c4ccc(OC5(C)CC5)cc34)ncn2)C[C@H](C)O1 [MLi-2-NC]
inactive: [1] 3.72%

C[C@@H]1CN(c2cc(-c3n[nH]c4ccc(OC5(C)CC5)cc34)ncn2)C[C@H](C)O1 [MLi-2]
inactive: [2] 71.9% | [3] 10.2% | [4] 3.64% | [5] 7.05% | [6] 1.89% | [7] 10.9% | [8] -1.69% | [9] 1.24%
